Measurements published in patent US6812231B2, “Benzamidine derivative” (Ajinomoto Co., Inc., priority 1998, dated 2004).

What was measured:
human thrombin = biological target: T1, human thrombin (Homo sapiens, UniProt P00734); experiment: Determination of thrombin-inhibiting activity (chromogenic substrate S-2238, initial rate); type: biochemical; conditions: tris hydrochloride buffer pH 8.4, room temperature, absorbance 405 nm; for IC50: read-out: Thrombin-inhibiting activity (pIC50) (converted)
T1 construct: solution of human thrombin (a product of SIGMA Co.); purchased SIGMA Co
Procedure: Determination of Thrombin-inhibiting Activity
130 μl of 100 mM tris hydrochloride buffer adjusted to pH 8.4 was added to 10 μl of an aqueous solution of a test compound. Then 10 μl of a solution of human thrombin (a product of SIGMA Co.) adjusted to 2 units/ml with tris hydrochloride buffer of pH 8.4 was added to the resultant mixture. After the incubation at room temperature for 10 minutes, 50 μl of a solution of D-phenylalanyl-L-pipecolyl-L-arginyl-P-nitroanilide dihydrochloride (S-2238; a product of Daiichi Kagaku Yakuhin Co.) adjusted to 0.4 mM with tris hydrochloride buffer of pH 8.4 was added thereto. The absorbance was determined and then the initial reaction rate was determined. A control was prepared in the same manner as that described above except that the solution of the compound to be tested was replaced with 10 μl of tris hydrochloride buffer adjusted to pH 8.4. The absorbance was determined with MICROPLATE READER Model 3550-UV (a product of […]) at a wave length of 405 nm at intervals of 15 seconds for 16 minutes.

[1] = biological target: T2, activated human blood coagulation factor X (Homo sapiens, UniProt P00742); experiment: Determination of activity of inhibiting the activated blood-coagulation factor X (chromogenic substrate, initial rate); type: biochemical; conditions: tris hydrochloride buffer pH 8.4, room temperature, absorbance 405 nm; for IC50: read-out: Activity of inhibiting activated blood coagulation factor X (pIC50) (converted)
T2 construct: purchased Enzyme Research Co
Procedure: Determination of Activity of Inhibiting the Activated Blood-coagulation Factor X
130 μl of 100 mM tris hydrochloride buffer adjusted to pH 8.4 was added to 10 μl of an aqueous solution of a compound to be tested. Then 10 μl of a 0.5 unit/ml solution of activated human blood coagulation factor X (a product of Enzyme Research Co.) in tris hydrochloride of pH 8.4 was added to the resultant mixture. After the incubation at room temperature for 10 minutes, 50 μl of a solution of N-benzoyl-L-isoleucyl-L-glutamyl-glycyl-L-arginyl-P-nitroanilide hydrochloride (a product of Peptide Institute, Inc.) adjusted to 0.8 mM with tris hydrochloride (pH 8.4) was added thereto. The absorbance was determined and then the initial reaction rate was determined. A control was prepared in the same manner as that described above except that the solution of the compound to be tested was replaced with 10 μl of tris hydrochloride buffer adjusted to pH 8.4. The absorbance was determined with MICROPLATE READER Model 3550-UV (a product of BIO RAD) at a wave length of 405 nm at intervals of 15 seconds for 16 minutes.

T2 sequence (P00742 235-488 limits assumed): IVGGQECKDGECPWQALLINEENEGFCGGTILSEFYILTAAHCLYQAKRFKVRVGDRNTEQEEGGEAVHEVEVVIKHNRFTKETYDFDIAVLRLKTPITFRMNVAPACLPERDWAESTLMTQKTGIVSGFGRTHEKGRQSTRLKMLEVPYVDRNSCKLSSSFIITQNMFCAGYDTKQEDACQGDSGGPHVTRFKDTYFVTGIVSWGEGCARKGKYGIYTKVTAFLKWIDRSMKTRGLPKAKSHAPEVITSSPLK
T2 sequence (P00742 41-179 partner limits assumed): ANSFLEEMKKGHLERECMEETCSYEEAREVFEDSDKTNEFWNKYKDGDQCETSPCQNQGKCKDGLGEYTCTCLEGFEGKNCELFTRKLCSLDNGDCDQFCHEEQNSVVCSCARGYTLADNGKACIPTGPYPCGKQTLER

| IC50 (human thrombin) [µM] | IC50 [1] [µM] | Compound | Thrombin-inhibiting activity (pIC50) (human thrombin) | Activity of inhibiting activated blood coagulation factor X (pIC50) [1] |
| --- | --- | --- | --- | --- |
|  |  | 3-[4-amidino-2-(2-((1-(1-methylpyridinium-4-yl)piperidine-4-carbonyl)amino)ethoxy)phenyl]-2-oxopropionic acid bistrifluoroacetate [Compd. of Ex. 52] | 4.2 | 7.1 |
|  |  | 3-[4-amidino-(2R)-2-((1-(pyridine-4-yl)piperidine-4-carbonyl)pyrrolidine-2-ylmethoxy)phenyl]propionic acid bistrifluoroacetate [Compd. of Ex. 26] | <4.0 | 7.8 |
|  |  | CC(=N)N1CCC(Oc2ccc(C(=O)NCCOc3cc(C(=N)N)ccc3C=CC(=O)O)cc2)CC1.O=C(O)C(F)(F)F.O=C(O)C(F)(F)F [Compd. of Ex. 2, 3-[4-amidino-2-(2-(4-(1-(1-acetimidoyl)-4-piperidyloxy)benzoylamino)ethoxy)phenyl]acrylic acid bistrifluoroacetate] | <3.0 |  |
|  |  | CC(=N)N1CCC(Oc2ccc(C(=O)NCCOc3cc(C(=N)N)ccc3CCC(=O)O)cc2)CC1.O=C(O)C(F)(F)F.O=C(O)C(F)(F)F [Compd. of Ex. 4, 3-[4-amidino-2-(2-(4-(1-(1-acetimidoyl)-4-piperidyloxy)benzoylamino)ethoxy)phenyl]propionic acid bistrifluoroacetate] | <3.0 | 7.5 |
| 6.31 | 0.0631 | CCOC(=O)CCc1ccc(C(=N)N)cc1OCCNC(=O)C1CCN(c2ccncc2)CC1 [Compd. of Ex. 5, ethyl 3-[4-amidino-2-(2-((1-(pyridine-4-yl)piperidine-4-carbonyl)amino)ethoxy)phenyl]propionate bistrifluoroacetate] |  |  |
|  |  | N=C(N)c1ccc(CCC(=O)O)c(OCCNC(=O)C2CCN(c3ccncc3)CC2)c1.O=C(O)C(F)(F)F.O=C(O)C(F)(F)F [Compd. of Ex. 6] | <3.0 | 7.4 |
|  |  | CC(=N)N1CCC(Oc2ccc(C(=O)N[C@@H](COc3cc(C(=N)N)ccc3CCC(=O)O)CC(=O)O)cc2)CC1.O=C(O)C(F)(F)F.O=C(O)C(F)(F)F [Compd. of Ex. 10, (3R)-4-[5-amidino-2-(2-carboxyethyl)phenoxy]-3-[4-(1-(1-acetimidoyl)-4-piperidyloxy)benzoylamino]butanoic acid bistrifluoroacetate] | <3.0 | 7.4 |
| > 794 | 0.0251 | N=C(N)c1ccc(CCC(=O)O)c(OC[C@@H](CC(=O)O)NC(=O)C2CCN(c3ccncc3)CC2)c1 [Compd. of Ex. 13, (3R)-4-[5-amidino-2-(2-carboxyethyl)phenoxy]-3-[(1-(pyridine-4-yl)piperidine-4-carbonyl)amino]butanoic acid bistrifluoroacetate] |  |  |
| > 100 | 0.0158 | CC(=N)N1CCC(Oc2ccc(C(=O)NCCOc3cc(C(=N)N)ccc3O)cc2)CC1 [Compd. of Ex. 14, N-[2-(5-amidino-2-hydroxyphenoxy)ethyl]-4-(1-acetimidoyl-4-piperidyloxy)benzamide bistrifluoroacetate] |  |  |
| > 100 | 0.0158 | CC(=N)N1CCC(Oc2ccc(C(=O)N[C@@H](COc3cc(C(=N)N)ccc3O)CC(=O)O)cc2)CC1 [Compd. of Ex. 28, (3R)-4-(5-amidino-2-hydroxyphenoxy)-3-[4-(1-acetimidoyl-4-piperidyloxy)benzoylamino]butanoic acid bistrifluoroacetate] |  |  |
| > 100 | 0.0126 | N=C(N)c1ccc(O)c(OC[C@@H](CC(=O)O)NC(=O)C2CCN(c3ccncc3)CC2)c1 [Compd. of Ex. 29, (3R)-4-(5-amidino-2-hydroxyphenoxy)-3-[(1-(pyridine-4-yl)piperidine-4-carbonyl)amino]butanoic acid bistrifluoroacetate] |  |  |
|  |  | N=C(N)c1ccc(CO)c(OCCNC(=O)C2CCN(c3ccncc3)CC2)c1.O=C(O)C(F)(F)F.O=C(O)C(F)(F)F [Compd. of Ex. 37, N-[2-(5-amidino-2-hydroxymethylphenoxy)ethyl]-1-(1-(1-pyridine-4-yl)piperidine)carboxamide bistrifluoroacetate] | <4.0 | 7.3 |
|  |  | COC(=O)c1ccc(C(=N)N)cc1OCCNC(=O)c1ccc(OC2CCN(C(C)=N)CC2)cc1.O=C(O)C(F)(F)F.O=C(O)C(F)(F)F [Compd. of Ex. 38, methyl 4-amidino-2-[2-(4-[1-(1-acetimidoyl)-4-piperidyloxy]benzoylamino)ethoxy]benzoate bistrifluoroacetate] | 3.3 |  |
|  |  | N=C(N)c1ccc(CCCO)c(OCCNC(=O)C2CCN(c3ccncc3)CC2)c1.O=C(O)C(F)(F)F.O=C(O)C(F)(F)F [Compd. of Ex. 43, N-[2-(5-amidino-2-hydroxypropylphenoxy)ethyl]-1-(1-(1-pyridine-4-yl)piperidine)carboxamide bistrifluoroacetate] | <4.0 | 7.8 |
|  |  | CN1CCN=C1c1ccc(C(=O)NCCOc2cc(C(=N)N)ccc2CC(=O)C(=O)O)cc1.O=C(O)C(F)(F)F.O=C(O)C(F)(F)F [Compd. of Ex. 51] | 4.3 | 8.1 |
|  |  | (3R)-3-[4-amidino-2-(3-ethoxycarbonyl-2-(4-(1-(1-acetimidoyl)-4-piperidyloxy)benzoylamino)propoxy)phenyl]acrylic acid bistrifluoroacetate [Compd. of Ex. 8] | <3.0 |  |
|  |  | N-[2-(5-amidino-2-hydroxyphenoxy)ethyl]-1-(4-pyridyl)-4-piperidine-4-carboxamide bistrifluoroacetate [Compd. of Ex. 15] | <4.0 | 8 |
|  |  | ethyl (3R)-4-[5-amidino-2-(2-ethoxycarbonylethyl)phenoxy]-3-[4-(1-(1-acetimidoyl)-4-piperidyloxy)benzoylamino]butanoate bistrifluoroacetate [Compd. of Ex. 9] | 5.5 |  |
